How the values were obtained:
[1] = test system: PANC-1, C6, MCF-7, U20S and HT1080 cell lines; conditions: 48 hours; for reduction in cell survival, drug alone: non-resistant cell lines, 0.1 μg/ml DOX, 0.3 μg/ml VIN
P388/ADR cells [2] = assay: Intracellular accumulation of Doxorubicin, confocal microscopy (system II); assay type: cell-based, murine
Protocol: (§1) At the end of the incubation time, the cells were washed 6 times with PBS, fixed with a mounting medium (Mounting medium with anti-fading agents, Biomeda corp., CA, USA) and were analysed by Confocal microscopy (Zeiss LSM 510). Excitation was at 488 nm and emission was measured using a band pass filter of 505-550 nm.

C-26 cells [3] = assay: Solid tumor model (inherent MDR); assay type: in vivo, mice; conditions: for solid tumor volume with time, single agent: fluoxetine 0.04 mg/kg daily oral alone, MMC or DOX 5 mg/kg i.v. alone
Protocol: In the solid tumor model, MDR-inherent C-26 cells were injected into the animal's right-hind footpad.
In the solid tumor model, Mitomycin C (MMC) and Doxorubicin (DOX) were tested separately, each at a dose of 5 mg/kg body.

P388/WT cell line = assay: MTT cell viability, non-resistant cell line; assay type: cell-based, murine
Protocol: (§2) After 4 hours incubation, the treatment media was replaced with CS- and CT-free media and the experiment was terminated 24 hours later.

B16F10 cells = assay: Lung metastasis model (inherent MDR); assay type: in vivo, mice; conditions: for lung metastatic burden (lung weight, number of metastasis), single agent: Doxorubicin 10 mg/kg alone, chemosensitizer 0.04 mg/kg daily oral alone
[4] = Animals' body weight (treatment toxicity) in P388/WT and P388/ADR models; assay type: in vivo, mice; conditions: fluoxetine 0.04 mg/kg daily oral only; DOX 3 mg/kg days 1, 5, 9; both tumor models
Protocol: (§3) P388/WT (non-resistant) or P388/ADR (MDR-acquired) murine leukemia cells were propagated in the peritoneum of BDF1 female mice by weekly transfer of 0.5 ml of peritoneal fluid containing 5×10^5 cells, to generate an intraperitoneal ascites model.
(§4) In both models, Doxorubicin (DOX) was tested. Doses of 3 mg/kg body were injected into the lateral tail vain, 1, 5 and 9 days after tumor inoculation.
(§5) Comparative experiments were run in parallel with the sensitive, non-resistant P388/WT model and the corresponding, MDR-acquired P388/ADR model. […] A group of untreated healthy animals was served as a control group. […] The fluoxetine was given in the drinking water, from tumor inoculation and on. Doxorubicin was injected into the lateral tail vain 1, 5 and 9 days post tumor inoculation. The effects of the various treatments on tumor response were monitored through animals' survival and animals' body weight. The latter was monitored in order to assess the treatment toxicity.

C6 cells = conditions: cells loaded with 0.1 μg/ml DOX alone
P388/ADR cell line = assay: MTT cell viability, MDR-acquired cell line; assay type: cell-based, murine; conditions: for increase in cell death, combined treatment with DOX: DOX (1, 5, 10 μg/ml) + 5 μM chemosensitizer
Protocol: as §2

P388/ADR cells [5] = assay: Intracellular accumulation of Rhodamine-123, flow cytometry (system I); assay type: cell-based, murine; conditions: 5 μM Rhodamine-123 + […] μM chemosensitizer, suspended cells
Text: The cells were thereafter analyzed for intracellular fluorescence, using a flow cytometer (Becton-Dickinson, USA). Excitation and emission were at 485 nm and 547 nm, respectively.

C-26 cells [6] = assay: Intracellular accumulation of Rhodamine-123, confocal microscopy (system II); assay type: cell-based, murine; conditions: 5 μM Rhodamine-123 + […] μM chemosensitizer, monolayers
Protocol: as §1

C6 and PANC-1 cells = test system: C6 and PANC-1 cells; parameters: dose or concentration left out as unconfirmed; conditions: […] μM fluoxetine alone, 24 hours
P388/ADR = assay: Intraperitoneal ascites model, MDR-acquired tumor, survival; assay type: in vivo, mice; conditions: DOX 3 mg/kg + fluoxetine 0.04 mg/kg daily oral
[7] = test system: B16F10 and C-26 cell lines; conditions: Mitomycin C 50 μg/ml or Doxorubicin 1.0 μg/ml with 15 μM fluoxetine
P388/WT = assay: Intraperitoneal ascites model, non-resistant tumor, survival; assay type: in vivo, mice; conditions: DOX 3 mg/kg + fluoxetine 0.04 mg/kg daily oral
Protocol: as §3, §4, §5

[8] = cited from earlier work
[9] = fluoxetine alone 1-20 μM, 4 hours then 20 hours CS-free media

CC[C@]1(O)C[C@@H]2CN(CCc3c([nH]c4ccccc34)[C@@](C(=O)OC)(c3cc4c(cc3OC)N(C)[C@H]3[C@@](O)(C(=O)OC)[C@H](OC(C)=O)[C@]5(CC)C=CCN6CC[C@]43[C@@H]65)C2)C1 [Vinblastine]
reduction in cell survival, drug alone [1]: 50%

COc1cccc2c1C(=O)c1c(O)c3c(c(O)c1C2=O)C[C@@](O)(C(=O)CO)C[C@@H]3O[C@H]1C[C@H](N)[C@H](O)[C@H](C)O1 [Doxorubicin]
reduction in cell survival, drug alone [1]: 50% | intracellular accumulation of doxorubicin alone (confocal images) (P388/ADR cells [2]; 5 μg/ml Doxorubicin alone): quite poor | solid tumor volume with time, single agent (C-26 cells [3]): increases fast and exponentially | cell death (P388/WT cell line; 0.5 μg/ml DOX alone): about 50% | cell death (P388/WT cell line; 5 μg/ml DOX alone): 100% | lung metastatic burden (lung weight, number of metastasis), single agent (B16F10 cells): only a mild reduction in the metastatic burden | change in body weight, single agent [4]: minor weight decrease | time for complete depletion of intracellular DOX (C6 cells): ≤ 2 h | cell death (P388/ADR cell line; 5 μg/ml DOX alone): < 20% | cell death (P388/ADR cell line; doubled drug concentration (10 μg/ml DOX) alone): about 30%

CO[C@@]12[C@H](COC(N)=O)C3=C(C(=O)C(C)=C(N)C3=O)N1C[C@@H]1N[C@@H]12 [Mitomycin C]
solid tumor volume with time, single agent (C-26 cells [3]): increases fast and exponentially

CNCCC(Oc1ccc(C(F)(F)F)cc1)c1ccccc1 (centres unmarked) [fluoxetine, N-methyl 3-(p-trifluoromethylphenoxy)-3-phenylpropylamine]
toxicity to the cells ([1]; fluoxetine alone, 0-15 μM): not toxic to the cells | increase of intracellular Rhodamine-123 fluorescence vs chemosensitizer-free control (P388/ADR cells [5]): about 200% | intracellular accumulation of Rhodamine-123 (confocal images) (C-26 cells [6]): substantially higher increase in the intracellular accumulation of Rhodamine-123 | effect on cell survival (C6 and PANC-1 cells): does not affect cell survival at all | elongated life span, combination of fluoxetine and DOX (P388/ADR): more than 2 fold | intracellular level of DOX (confocal images) (P388/ADR cells [2]; 5 μg/ml Doxorubicin + 5 μM fluoxetine, monolayers): substantial increase in the intracellular level of DOX | survival prolonged vs saline, CS alone and CT alone (C-26 cells [3]; DOX+CS (DOX 5 mg/kg, fluoxetine 0.04 mg/kg daily oral)): 3 fold | survival prolonged vs saline, CS alone and CT alone (C-26 cells [3]; MMC+CS (MMC 5 mg/kg, fluoxetine 0.04 mg/kg daily oral)): 2 fold | solid tumor growth, combination therapy (C-26 cells [3]; fluoxetine 0.04 mg/kg daily oral + MMC or DOX 5 mg/kg): tumor growth is significantly slower | solid tumor volume with time, single agent (C-26 cells [3]): increases fast and exponentially | cell death, combination of the drug and fluoxetine [7]: 80-90% | effect of combination treatment on level of cells death (P388/WT cell line; DOX with 5 μM fluoxetine vs DOX alone): had no effect on the level of cells death | effect on cells viability (P388/WT cell line; [9]): no effect on cells viability | survival, CS alone (B16F10 cells; 75-days experiment): died rather early | survival, combination treatment (B16F10 cells; CS + Doxorubicin, 75-days experiment): long survivors | lung metastatic burden (lung weight, number of metastasis), single agent (B16F10 cells): highest metastatic burden | lung metastatic burden, combination treatment (B16F10 cells; chemosensitizer + Doxorubicin 10 mg/kg): substantial reduction | change in body weight, single agent [4]: no weight loss | animals' survival, combined DOX and fluoxetine (P388/WT): had no effect on animal's survival | increase in cell death, combined treatment with DOX (P388/ADR cell line): significant increase | increase in cell death as compared with Verapamil and CsA (P388/ADR cell line; DOX + 5 μM fluoxetine vs DOX + 5 μM Verapamil or CsA): 2-3 fold | effect on cells viability (P388/ADR cell line; [9]): no effect on cells viability | safe, substantially side effect-free daily dose range [8]: 10-15 mg/M^2

COc1ccc(CCN(C)CCCC(C#N)(c2ccc(OC)c(OC)c2)C(C)C)cc1OC (centres unmarked) [Verapamil]
increase of intracellular Rhodamine-123 fluorescence vs chemosensitizer-free control (P388/ADR cells [5]): about 60% | intracellular accumulation of Rhodamine-123 (confocal images) (C-26 cells [6]): an increase in the intracellular level of Rhodamine-123 | increase in cell death, combined treatment with DOX (P388/ADR cell line): modest increase in cell death
